PMC8982266 (Journal of medicinal chemistry, 2015)

Key:
[1] = tested on: Klebsiella pneumoniae; test: MIC micro broth dilution assay; assay type: cell-based; details: for concentration inhibiting growth of 90% of isolates: panel of clinical K. pneumoniae isolates; for MIC: K. pneumoniae, purified compounds
[2] = tested on: Pseudomonas aeruginosa; test: MIC micro broth dilution assay; assay type: cell-based; details: for concentration inhibiting growth of 90% of isolates: panel of clinical P. aeruginosa isolates; for MIC: P. aeruginosa, purified compounds
[3] = tested on: E. cloacae; test: MIC micro broth dilution assay; assay type: cell-based; details: for concentration inhibiting growth of 90% of isolates: panel of clinical E. cloacae isolates; for MIC: E. cloacae, purified compounds
[4] = tested on: ESKAPE pathogens; test: MIC micro broth dilution assay, all six species together; assay type: cell-based
[5] = tested on: S. aureus; test: Serial passage resistance assay; assay type: cell-based, Staphylococcus aureus; details: 8 passages, concentration doubled each day
[6] = tested on: Staphylococcus aureus (USA300 strain FPR3757); test: Murine model of lethal peritonitis; assay type: in vivo; details: 2xMIC, I.M., 1h post-infection; six mice per group
[7] = tested on: P. aeruginosa clinical isolates; test: Growth with efflux inhibitor reserpine; assay type: cell-based, Pseudomonas aeruginosa; details: P. aeruginosa isolate 1420
[8] = tested on: Enterococcus faecium; test: MIC micro broth dilution assay; assay type: cell-based; details: E. faecium; purified compounds
[9] = tested on: Staphylococcus aureus; test: MIC micro broth dilution assay; assay type: cell-based; details: S. aureus; purified compounds
[10] = tested on: Acinetobacter baumannii; test: MIC micro broth dilution assay; assay type: cell-based; details: A. baumannii; purified compounds
[11] = tested on: Staphylococcus aureus biofilm; test: Minimum biofilm eradication concentration; assay type: cell-based; details: S. aureus biofilm; purified compounds
[12] = tested on: Klebsiella pneumoniae biofilm; test: Minimum biofilm eradication concentration; assay type: cell-based; details: K. pneumoniae biofilm; purified compounds
[13] = tested on: Acinetobacter baumannii biofilm; test: Minimum biofilm eradication concentration; assay type: cell-based; details: A. baumannii biofilm; purified compounds
[14] = tested on: Pseudomonas aeruginosa biofilm; test: Minimum biofilm eradication concentration; assay type: cell-based; details: P. aeruginosa biofilm; purified compounds
[15] = tested on: E. cloacae biofilm; test: Minimum biofilm eradication concentration; assay type: cell-based; details: purified compounds
[16] = tested on: human A549 cells; test: Cytotoxicity MTT assay; assay type: cell-based; details: for IC50: read-out: IC50 A549, toxicity towards human A549 cells, MTT, 48 hours
[17] = tested on: K. pneumoniae; test: Serial passage resistance assay; assay type: cell-based, Klebsiella pneumoniae; details: 8 passages
[18] = tested on: A. baumannii; test: Serial passage resistance assay; assay type: cell-based, Acinetobacter baumannii; details: 8 passages
[19] = tested on: E. cloacae; assay type: cell-based; details: 8 passages
[20] = tested on: P. aeruginosa; assay type: cell-based, Pseudomonas aeruginosa; details: 8 passages
[21] = tested on: K. pneumoniae strain 1441; test: Growth with efflux inhibitor reserpine; assay type: cell-based, Klebsiella pneumoniae; details: with 100 μM of reserpine
[22] = tested on: Enterococcus faecium biofilm; test: Minimum biofilm eradication concentration; assay type: cell-based; details: E. faecium biofilm; purified compounds
[23] = tested on: E. cloacae strain 1446; test: Growth with efflux inhibitor reserpine; assay type: cell-based; details: with 100 μM of reserpine
[24] = tested on: human red blood cells (hRBCs)
[25] = tested on: MRSA cells; test: Time kill assay; assay type: cell-based, Staphylococcus aureus

Row | Compound | concentration inhibiting growth of 90% of isolates [1] [µM] | concentration inhibiting growth of 90% of isolates [2] [µM] | concentration inhibiting growth of 90% of isolates [3] [µM] | concentration with antibacterial activity against all 6 species [4] [µM] | fold increase in MIC after serial passage [5] | survival of infected mice over 5 days [6] | MIC [8] [µM] | MIC [9] [µM] | MIC [1] [µM] | MIC [10] [µM] | MIC [2] [µM] | MIC [3] [µM] | MBEC50 [11] [µM] | MBEC50 [12] [µM] | MBEC50 [13] [µM] | MBEC50 [14] [µM] | MBEC50 [15] [µM] | IC50 [16] [µM] | further results
1 | CCCC[C@H]1CN(CCCC[C@H]2CNC(=N)N2CCc2cccc(C(F)(F)F)c2)C(=N)N1CCCCC1CCCCC1 [compound 2, (S)-4-butyl-3-(4-cyclohexylbutyl)-1-(4-((S)-2-imino-3-(3-(trifluoromethyl)phenethyl)imidazolidin-4-yl)butyl)imidazolidin-2-imine] | 5 | 5 | 5 | < 2 | two-fold | only a single mouse succumbing to infection after the first day | – | – | – | – | – | – | – | – | – | – | – | – | –
2 | COC(=O)[C@H]1[C@H]2C[C@@H]3c4[nH]c5cc(OC)ccc5c4CCN3C[C@H]2C[C@@H](OC(=O)c2cc(OC)c(OC)c(OC)c2)[C@@H]1OC [reserpine, reference compound] | – | – | – | – | – | – | – | – | – | – | – | – | – | – | – | – | – | – | effect on growth, reserpine alone ([7]; 100 μM of reserpine): no effect
3 | (S)-1-(4-((S)-3-(4-cyclohexylbutyl)-2-iminoimidazolidin-4-yl)butyl)-4-(cyclohexylmethyl)-3-hexylimidazolidin-2-imine [compound 16] | 5 | 5 | 2 | < 2 | 16 fold | only a single mouse succumbing to infection after the first day | 1.6 | 1.6 | 1.6 | 1.6 | 1.6 | 1.6 | 7.6 | 6.3 | 14 | 34 | 13 | > 225 | A549 recovery ([16]; at concentrations up to 100 μM): > 65%; fold increase in MIC after serial passage [17]: ≤ 8 fold; fold increase in MIC after serial passage [18]: ≤ 8 fold; fold increase in MIC after serial passage [19]: ≤ 8 fold; fold increase in MIC after serial passage [20]: 8 fold; effect on growth, compound in combination with reserpine [21]: complete inhibition of growth
4 | (S)-4-(cyclohexylmethyl)-3-hexyl-1-(4-((S)-2-imino-3-(3-(trifluoromethyl)phenethyl)imidazolidin-4-yl)butyl)imidazolidin-2-imine [compound 7] | 5 | 10 | 2 | < 2 | four-fold | 1 mouse lost on each of days 2 and 4 | 1.5 | 1.5 | 1.5 | 1.5 | 1.5 | 1.5 | 4.4 | 4.8 | 13 | 46 | 15 | 66 | MBEC50 [22]: 26 µM; A549 recovery ([16]; above 45 μM, at concentrations up to 225 μM): ≥ 33%; A549 recovery ([16]; at 45 μM): > 60%; fold increase in MIC after serial passage [17]: ≤ 8 fold; fold increase in MIC after serial passage [18]: ≤ 8 fold; fold increase in MIC after serial passage [19]: ≤ 8 fold; effect on growth, compound in combination with reserpine [23]: complete inhibition of growth
5 | (S)-4-butyl-3-hexyl-1-(4-((S)-2-imino-3-(3-(trifluoromethyl)phenethyl)imidazolidin-4-yl)butyl)imidazolidin-2-imine [compound 1] | 10 | 10 | 10 | < 2 | two-fold | all mice survived | 1.6 | 1.6 | 1.6 | 1.6 | 1.6 | 1.6 | 14 | 7.0 | 15 | 20 | 13 | 164 | MBEC50 [22]: 39 µM; effect on growth, compound combined with reserpine ([7]; 2 μM compound + 100 μM reserpine): strongly inhibited growth; effect on growth, compound alone ([7]; 2 μM of compound, no reserpine): no effect
6 | Triton-X100 | – | – | – | – | – | – | – | – | – | – | – | – | – | – | – | – | – | – | hemolysis, positive control [24]: 100%
7 | benzalkonium chloride [reference compound] | – | – | – | – | – | – | – | – | – | – | – | – | – | – | – | – | – | – | cells recovered / surviving exposure (optical density relative to start) ([25]; MRSA, 2 h, 2.0% SDS, 0.001% benzalkonium chloride, 0.001% benzethonium chloride): 29%
8 | lysostaphin: a S. aureus specific lytic agent, positive control | – | – | – | – | – | – | – | – | – | – | – | – | – | – | – | – | – | – | lysis of MRSA cells ([25]; within 10 minutes of exposure, 4 μM lysostaphin): > 50%
